Source: patent publication US11767536B2, “Method for obtaining glyphosate-resistant rice by site-directed nucleotide substitution” (Institute of Genetics and Developmental Biology, Chinese …, priority 2015, dated 2023)

Tests used:
[1] = system: wild type rice (Oryza sativa L. japonica. cv. Nipponbare) plants; experiment: Glyphosate resistance verification in N6 culture medium, wild type rice plants; format: in vivo; settings: N6 culture medium containing 1 mg/L glyphosate, recorded after 10 days
Method: (§1) The three TIPS EPSPS site mutation lines (T0-1, T0-5 and T0-7) obtained from Example 4 and wild type rice (Oryza sativa L. japonica. cv. Nipponbare) plants were placed into an N6 culture medium containing 1 mg/L glyphosate, and cultured under the routine culture conditions. The resistance results were recorded after 10 days. Verification was carried out in more than 3 plants for each TIPS EPSPS site mutation line.

[2] = system: TIPS EPSPS site mutation lines (T0-1, T0-5 and T0-7); experiment: Glyphosate resistance verification in N6 culture medium, TIPS EPSPS site mutation lines; format: in vivo, Oryza sativa L. japonica. cv. Nipponbare; settings: N6 culture medium containing 1 mg/L glyphosate, recorded after 10 days, TIPS EPSPS mutant rice T0-1, T0-5, T0-7
Method: as §1

O=C(O)CNCP(=O)(O)O [glyphosate]
resistance results (plant condition) [1]: chlorotic and wilting to die | resistance results (plant condition) [2]: survived normally
